According to US5110800A, “Derivatives of erythromycylamine” (Eli Lilly and Company, priority 1989, dated 1992):

Experiments:
Streptococcus pneumoniae = test: Oral ED50 against experimental infection in mice; assay type: in vivo; conditions: two doses, protects 50% of animals
Description: (§1) The new derivatives of this invention have also shown in vivo antimicrobial activity against experimental bacterial infections. When two doses of test compound were administered to mice in experimental infections, the activity observed was measured as an ED50 value [effective dose in mg/kg to protect 50% of the test animals: see Warren Wick, et al., J. Bacteriol. 81, 233-235 (1961)].

Staphylococcus aureus = test: Oral ED50 against experimental infection in mice; assay type: in vivo; conditions: two doses, protects 50% of animals
Description: as §1

Streptococcus pyogenes = test: Oral ED50 against experimental infection in mice; assay type: in vivo; conditions: two doses, protects 50% of animals
Description: as §1

[1] = tested on: Staphylococcus aureus S13E; test: MIC, standard agar-dilution assay; assay type: cell-based; conditions: Table IV; agar dilution
[2] = tested on: Staphylococcus aureus V41; test: MIC, standard agar-dilution assay; assay type: cell-based; conditions: Table IV; penicillin-resistant strain; inducibly erythromycin-resistant
Description: (§2) In addition to excellent in vitro activity against erythromycin-sensitive bacteria, several members of this new series have shown in vitro activity against erythromycin-resistant strains. These include strains which are inducibly-resistant to erythromycin (S. aureus V41 and X400 and S. epidermidis EPI1) and even strains which are constitutively-resistant (S. epidermidis 270).

[3] = tested on: Staphylococcus epidermidis 270; test: MIC, standard agar-dilution assay; assay type: cell-based; conditions: Table IV; constitutively erythromycin-resistant
Description: as §2

[4] = tested on: Staphylococcus aureus X400; test: MIC, standard agar-dilution assay; assay type: cell-based; conditions: Table IV; methicillin-resistant strain; inducibly erythromycin-resistant
Description: as §2

[5] = tested on: Streptococcus pneumoniae Park I; test: MIC, standard agar-dilution assay; assay type: cell-based; conditions: Table IV; agar dilution
[6] = tested on: Streptococcus sp. group D X66; test: MIC, standard agar-dilution assay; assay type: cell-based; conditions: Table IV; agar dilution
Escherichia coli EC14 = test: MIC, standard agar-dilution assay; assay type: cell-based; conditions: Table IV; agar dilution
[7] = tested on: Streptococcus sp. group D 2041; test: MIC, standard agar-dilution assay; assay type: cell-based; conditions: Table IV; agar dilution
[8] = tested on: Klebsiella pneumoniae X68; test: MIC, standard agar-dilution assay; assay type: cell-based; conditions: Table IV; agar dilution
[9] = tested on: Streptococcus pyogenes C203; test: MIC, standard agar-dilution assay; assay type: cell-based; conditions: Table IV; agar dilution
[10] = tested on: Staphylococcus aureus X1.1; test: MIC, standard agar-dilution assay; assay type: cell-based; conditions: Table IV; agar dilution
[11] = tested on: Haemophilus influenzae 76; test: MIC, standard agar-dilution assay; assay type: cell-based; conditions: Table IV; ampicillin-resistant strain
[12] = tested on: Staphylococcus epidermidis 222; test: MIC, standard agar-dilution assay; assay type: cell-based; conditions: Table IV; agar dilution
[13] = tested on: Haemophilus influenzae C.L.; test: MIC, standard agar-dilution assay; assay type: cell-based; conditions: Table IV; ampicillin-sensitive strain

With “Endo- and Exo-9-Deoxo-9-[(bicyclo[2.2.1]hept-2-en-5-yl-methyl)amino]erythromycin [Compound 19]” the “Oral ED50” value (Streptococcus pneumoniae) was 25.0 mg/kg, the “Oral ED50” value (Staphylococcus aureus) was > 50 mg/kg and the “Oral ED50” value (Streptococcus pyogenes) was 16.6 mg/kg. The “minimal inhibitory concentration (MIC)” value [1] was 2 µg/mL, the “minimal inhibitory concentration (MIC)” value [2] was “-- (-- = >128)” and the “minimal inhibitory concentration (MIC)” value [3] was “-- (-- = >128)”. For the same substance, the “minimal inhibitory concentration (MIC)” value [4] was “-- (-- = >128)”, the “minimal inhibitory concentration (MIC)” value [5] was 0.015 µg/mL and the “minimal inhibitory concentration (MIC)” value [6] was 1 µg/mL. For the same substance, the “minimal inhibitory concentration (MIC)” value (Escherichia coli EC14) was 64 µg/mL, the “minimal inhibitory concentration (MIC)” value [7] was 8 µg/mL and the “minimal inhibitory concentration (MIC)” value [8] was “-- (-- = >128)”. For the same substance, the “minimal inhibitory concentration (MIC)” value [9] was 0.25 µg/mL, the “minimal inhibitory concentration (MIC)” value [10] was 2 µg/mL and the “minimal inhibitory concentration (MIC)” value [11] was 8 µg/mL. The “minimal inhibitory concentration (MIC)” value [12] was 1 µg/mL and the “minimal inhibitory concentration (MIC)” value [13] was 8 µg/mL.
